Source: patent US12351819B2, “Method for removing undifferentiated pluripotent stem cells” (priority 2017, dated 2025)

Tests used:
hESCs (H9) = conditions: for LDH assay positive, hESCs: Table 1; for cytotoxic effect (LDH release) in hESCs: 2.5 μM, 24 hours, vs DMSO
Procedure: The hESC line H9 was purchased from WiCells (Madison, WI, USA)^27. Another hESC line, HUES6, was kindly provided by Dr. Douglas A. Melton (Harvard University, Boston, MA, USA)^28. Cells were maintained on the feeder cells and cultured in Dulbecco's modified Eagle's medium (DMEM)/F12 supplemented with 20% knockout serum replacement, 2 mM L-glutamine, 1% nonessential amino acids, 4 ng/mL human bFGF, and 0.1 mM 2-mercaptoethanol. For the feeder cells culture, C57BL/6 mouse embryonic fibroblasts (MEF) were cultured in the DMEM with 10% FBS and treated cells with 0.01 mg/ml mitomycin C 2-6 hours for inactivation. For the feeder-free culture, hESCs were seeded on the Matrigel Matrix (BD Biosciences, San Jose, CA, USA) coated culture plates and maintained by conditioned medium of MEF (C57BL/6). hBMMSCs were cultured in mesenPRO RS™ kit (Life Technologies, Camarillo, CA, USA). All cells were cultured in a humidified atmosphere containing 5% CO2 at 37° C.
(§1) The supernatants of cells treated with digoxin […], lanatoside C 2.5 μm, or DMSO solvent control for 24 hours were harvested. The released LDH was measured using CytoTox 96 […] assay according to the manufacture's instruction (Promega, Southampton, UK). The supernatants and reagents were incubated at room temperature for 20 minutes and then the reaction was stopped by Stop Solution. The absorbance at 490 nm was measured using a plate-reading spectrophotometer (Benchmark Plus Microplate Spectrophotometer System, BIO-RAD, CA, USA).

hESCs = assay: Alamar blue assay, hESCs; type: cell-based, human; conditions: FIG. 12
Procedure: Alamar blue assay measured the relative cell number. In the cells, we added 1/10 of Alamar Blue Viability Assay reagent to the total volume of the mixture (Biotium; Fremont, CA, USA). The cells were incubated overnight at 37° C. The resulted were quantified by the measurement of optical density (OD) absorbance values at 570 nm and 600 nm, and the relative cell number was calculated.

hiPSCs = conditions: Table 1; hiPSCs
Procedure: as §1
hiPSC-derived endothelial cells were prepared according in a previous report^34. The hiPSCs were maintained in mTeSR 1 medium ([…] Technologies, Vancouver, Canada) on VTN-N coated plates (Thermo, Wilmington, DE, USA). First, for the stepwise induction of differentiation, we performed a mesoderm induction of hiPSCs seeded in mesoderm induction medium for 48 hours (basal medium with […], […], and 2 ng/ml of Activin A; basal medium was composed of 12 g/L of DMEM/F-12, 3.56 g/L of HEPES, 1.742 g/L of sodium bicarbonate, 14 μg/L of sodium selenite, 10.7 mg/L of recombinant transferrin, 19.4 mg/L of recombinant insulin, and 64 mg/L of L-Ascorbic acid 2-phosphate sesquimagnesium salt hydrate). Second, for the mesoderm to endothelium transition, mesoderm cells were reseeded in vasculogenic medium (basal medium with 2 mg/ml of PVA plus 20 ng/ml of hVEGF-A) for an additional 72 hours. All differentiated cells were plated on VTN pre-coated culture plate dishes. The endothelial cells were analyzed on day 5 by flow cytometry staining with the CD31 (PECAM1, ThermoFisher Scientific, Wilmington, DE, USA) and CD144 (CDH5, ThermoFisher Scientific) antibodies.

[1] = tested on: hESC-hepatocyte endoderm cells; assay: LDH cytotoxicity assay in hESC-derived hepatocyte endoderm; type: cell-based, human; conditions: Table 1
Procedure: This protocol followed a method previously published in Nature Protocols^36. The hESCs were detached by 0.5 mM EDTA (Life Technologies, Camarillo, C, USA), seeded on VTN-N coated culture plates (Corning) and maintained for 48 hours in mTeSR 1 medium. Then, the medium was refreshed daily for all following steps. On days 1-2, the medium was replaced with fresh CDM-PVA (consisting of 0.5 g of PVA (Sigma) dissolved in 250 ml of IMDM/F-12, GlutaMAX (Invitrogen), 250 ml of IMDM (Invitrogen), 5 ml of chemically defined lipid concentrate (Invitrogen), 20 of thioglycerol 97% (Sigma), 350 of insulin (10 mg/ml; Roche), 250 of transferrin (30 mg/ml; Roche) plus Activin A (100 ng/ml; R&D), bFGF (80 ng/ml; R&D), BMP4 (10 ng/ml; R&D), and […] of LY-294002 (Promega). On day 3, the cells were differentiated in RPMI Medium supplemented with Activin A (100 ng/ml) and bFGF (80 ng/ml). On days 4-6, the cells were expanded in RPMI medium supplemented with Activin A (50 ng/ml). On day 7, the cells were passaged and re-plated 105,000 cells/cm^2 cells in VTN-N coated culture plates in RPMI containing Activin A (50 ng/ml) and Y-27632 2HCl (10 μM Selleck-chem, Houston, TX, USA and Munich, Germany). Then, the cells were maintained in RPMI+Activin A (50 ng/ml) on days 8-11. The cells were differentiated into the hepatocyte endoderm and analyzed following the drug treatments. The expression of alpha-fetoprotein (A0008, Dako, Santa Clara, CA, USA) was analyzed in the hepatocyte endoderm via immunofluorescence staining.

hPSCs teratoma formation = conditions: background, literature; cited from earlier work
hPSCs = conditions: background, literature; cited from earlier work
H9 hESC-MSCs = conditions: 2.5 μM, 24 hours
Procedure: as §1
According to the report from Dr. Xu and colleagues^30, hESCs were cultured with 10 ng/ml BMP4 and 1 μM of A8301 for 5 days. Next, the cells were passaged on the gelatin-coated plate and the culture medium was switched to MSC culture medium [Minimum Essential Medium Eagle Alpha Modification (αMEM) medium supplemented with 20% fetal bovine serum (FBS), 1-glutamine (Gluta-MAX), 1× nonessential amino acids]. Cells were expanded within passage 5, and CD73^+ (11-0793, ThermoFisher Scientific) and CD105^+ (12-1057, ThermoFisher Scientific) double positive cells were sorted.
hESC-derived MSCs were trypsinized and washed with PBS. Then cells were incubated with anti-human CD73 FITC (ThermoFisher Scientific) and anti-human CD105 PE (ThermoFisher Scientific) for 15 minutes at 4° C. Cells were washed cells with PBS for three times. CD73^+/CD105^+ cells were sorted with the cell sorter (BD FACSAria II, BD Biosciences). Sorted cells were maintained in MSC culture medium.

PERK/AT4/DDIT3 pathway = conditions: through the PERK/AT4/DDIT3 pathway; literature; cited from earlier work

SMILES | LDH assay positive, hESCs (hESCs (H9)) | cell death in hESCs (Alamar blue, relative cell number) (hESCs) | LDH assay positive, hiPSCs (hiPSCs) | LDH assay positive, hepatocyte endoderm cells [1] | teratoma formation in hPSCs (hPSCs teratoma formation) | selective cell death (hPSCs) | cytotoxic effect (LDH release) in hESCs (hESCs (H9)) | cytotoxicity (LDH release) in H9 hESC-MSCs (H9 hESC-MSCs) | ER stress (PERK/AT4/DDIT3 pathway)
C[C@H]1O[C@@H](O[C@H]2[C@@H](O)C[C@H](O[C@H]3[C@@H](O)C[C@H](O[C@H]4CC[C@@]5(C)[C@H](CC[C@@H]6[C@@H]5CC[C@]5(C)[C@@H](C7=CC(=O)OC7)CC[C@]65O)C4)O[C@@H]3C)O[C@@H]2C)C[C@H](O)[C@@H]1O [Digitoxin, digitoxin] | +++ (more than 70% positive cells) | dose dependent manner | +++ (more than 70% positive cells) | −/+ (10% positive cells) | – | – | – | – | –
O=c1c(O)c(-c2ccc(O)c(O)c2)oc2cc(O)cc(O)c12 [quercetin] | – | – | – | – | efficiently inhibited teratoma formation | induced selective cell death | – | – | –
C[C@@H]1O[C@@H](O[C@H]2C[C@@H](O)[C@]3(CO)[C@H]4[C@H](O)C[C@]5(C)[C@@H](C6=CC(=O)OC6)CC[C@]5(O)[C@@H]4CC[C@]3(O)C2)[C@H](O)[C@H](O)[C@H]1O [Ouabain, ouabain] | +++ (more than 70% positive cells) | dose dependent manner | +++ (more than 70% positive cells) | −/+ (10% positive cells) | – | – | – | – | –
C[C@]12CC[C@H](O)C[C@H]1CC[C@@H]1[C@@H]2CC[C@]2(C)[C@@H](c3ccc(=O)oc3)CC[C@]12O [Bufalin, bufalin] | +++ (more than 70% positive cells) | – | +++ (more than 70% positive cells) | −/+ (10% positive cells) | – | – | induced cytotoxicity | do not induce cytotoxicity | –
C[C@]12CC[C@H](O)C[C@H]1CC[C@@H]1[C@@H]2CC[C@]2(C)[C@@H](C3=CC(=O)OC3)CC[C@]12O [Digitoxigenin, digitoxigenin] | +++ (more than 70% positive cells) | dose dependent manner | +++ (more than 70% positive cells) | −/+ (10% positive cells) | – | – | – | – | –
COCCn1c2c([n+](Cc3cnccn3)c1C)C(=O)c1ccccc1C2=O [YM155] | – | – | – | – | efficiently inhibited teratoma formation | induced selective cell death | – | – | –
O=C(NNc1ccccc1)c1ccncc1 [PluriSin #1] | – | – | – | – | prevented teratoma formation | – | – | – | –
C[C@@H]1O[C@@H](O[C@@H]2C=C3CC[C@@H]4[C@H](CC[C@]5(C)[C@@H](c6ccc(=O)oc6)CC[C@]45O)[C@@]3(C)CC2)[C@H](O)[C@H](O)[C@H]1O [Proscillaridin A, proscillaridin A] | +++ (more than 70% positive cells) | dose dependent manner | +++ (more than 70% positive cells) | −/+ (10% positive cells) | – | – | induced cytotoxicity | do not induce cytotoxicity | –
CCCCCCCCC(=O)NCc1ccccc1 [JC011] | – | – | – | – | – | – | – | – | induced ER stress
